Measurements as given in ChEMBL document CHEMBL3351940, “Antioxidant effects of the highly-substituted carbazole alkaloids and their related carbazoles” (Bioorg Med Chem Lett, 2014).
pIC50: −log10 of the molar value.

Legend:
[1] = Antioxidant activity assessed as ABTS+ radical scavenging capacity after 16 hrs by UV spectrophotometry; type: physicochemical
[2] = Cytotoxicity against human HCT116 cells assessed as reduction cell viability at 100 uM after 48 hrs by MTT assay; type: cell-based; conditions: hct-116, 48 h
[3] = Antioxidant activity assessed as DPPH radical scavenging capacity after 30 mins by UV spectrophotometry; type: physicochemical
[4] = Antioxidant activity assessed as reduction of Cu2+ to Cu+ after 3 mins by PAO-SO method; type: physicochemical; conditions: 0.05 h

Row | Structure (SMILES) | pIC50 [1] | pIC50 [3] | Activity [4] | Activity [2]
1 | C/C(=C\c1c(C)c(O)cc2c1[nH]c1c(O)ccc(CO)c12)CCC(C)C | 3.95 | 5.00 | 3567 µmol/L | Non-toxic
2 | CC[C@H](C)CC/C(C)=C/c1c(C)c(O)cc2c1[nH]c1c(O)ccc(CO)c12 | 3.94 | 5.01 | 3413 µmol/L | Non-toxic
3 | CC[C@H](C)CC/C(C)=C/c1c(C)c(O)cc2c1[nH]c1c(O)ccc(C=O)c12 | 4.24 | 5.12 | 4580 µmol/L | Non-toxic
4 | Cc1c(C)c2c(c(C)c1O)CC[C@@](C)(CCC[C@H](C)CCC[C@H](C)CCCC(C)C)O2 [ALPHA-TOCOPHEROL] | 3.68 | 4.81 | Active | Non-toxic
5 | CC1=NN(c2ccccc2)C(=O)C1 [EDARAVONE] | 3.67 | 4.71 | 3096 µmol/L | Non-toxic
6 | CCCOC(=O)c1cc(O)c(O)c(O)c1 [PROPYL GALLATE] | 3.73 | 5.21 | 3096 µmol/L | Non-toxic

The next lines start with results.

Row | pIC50 [1] | pIC50 [3] | Activity [4] | Structure (SMILES) | Activity [2]
7 | 3.80 | 4.92 | 2803 µmol/L | CCCCCCCc1c(C)c(O)cc2c1[nH]c1ccccc12 | Non-toxic
8 | 4.28 | 5.15 | 4584 µmol/L | C/C(=C\c1c(C)c(O)cc2c1[nH]c1c(O)ccc(C=O)c12)CCC(C)C | Non-toxic
9 | < 3.30 | < 4.30 | 1182 µmol/L | CC(C)=CCc1ccc2[nH]c3c(c2c1)C(=O)C(=O)C(C)=C3CC(C)O (centres undefined) | Toxic
10 | 3.79 | 4.92 | 2881 µmol/L | Cc1c(O)cc2c([nH]c3ccccc32)c1CC(C)O (centres undefined) | Non-toxic
11 | 3.76 | 4.92 | 2411 µmol/L | CC(C)=CCc1ccc2[nH]c3c(CC(C)O)c(C)c(O)cc3c2c1 (centres undefined) | Toxic
